Assay results as given in PMC3685188 (Chemical Research in Toxicology, 2013).

What was measured:
h5HT7 = h5HT7 (Homo sapiens, UniProt P34969); assay: GPCR_h5HT7 binding; details: LCT ∼[…] for non-CYPs; value = assay target as listed
h5HT2A = h5HT2A (Homo sapiens, UniProt P28223); type: binding; details: LCT ∼[…] for non-CYPs; value = assay target as listed
p5HT2C = type: binding, boar; details: LCT ∼[…] for non-CYPs; value = assay target as listed
r5HT_NonSelective = assay: GPCR_r5HT_NonSelective binding; set-up: species or system rat; details: LCT ∼[…] for non-CYPs; value = assay target as listed
hDRD1 = hDRD1 (Homo sapiens, UniProt P21728); type: binding; details: LCT ∼[…] for non-CYPs; value = assay target as listed
hDRD4.4 = hDRD4.4 (Homo sapiens, UniProt P21917); type: binding; details: LCT ∼[…] for non-CYPs; value = assay target as listed
hCYP4F12 = hCYP4F12 (Homo sapiens, UniProt Q9HCS2); assay: ADME_hCYP4F12_Activator; type: in vitro ADME; details: activator assay; LCT ∼0.009 μM for CYPs; value = assay target as listed
hETA = hETA (Homo sapiens, UniProt P25101); assay: GPCR_hETA binding; details: LCT ∼[…] for non-CYPs; value = assay target as listed
hNTS = hNTS (Homo sapiens, UniProt P30989); assay: GPCR_hNTS binding; details: LCT ∼[…] for non-CYPs; value = assay target as listed
gSIGMA_NonSelective = type: binding, guinea pig; details: LCT ∼[…] for non-CYPs; value = assay target as listed
mCCKAPeripheral = mCCKAPeripheral (Mus musculus, UniProt O08786); type: binding
hDUSP3 = hDUSP3 (Homo sapiens, UniProt P51452); assay: ENZ_hDUSP3 phosphatase inhibition; type: biochemical; details: LCT ∼[…] for non-CYPs; value = assay target as listed
kinases and phosphatases = assay: kinase and phosphatase assays taken together; type: biochemical
hAdrb2 = hAdrb2 (Homo sapiens, UniProt P07550); assay: GPCR_hAdrb2 binding; details: LCT ∼[…] for non-CYPs; value = assay target as listed
rNNR_BungSens = rNNR_BungSens (Rattus norvegicus, UniProt Q05941); assay: LGIC_rNNR_BungSens binding; details: LCT ∼[…] for non-CYPs; value = assay target as listed
gDAT = assay: TR_gDAT dopamine transporter binding; set-up: species or system guinea pig; details: LCT ∼[…] for non-CYPs; value = assay target as listed
bGABARa5 = assay: LGIC_bGABARa5 binding; set-up: species or system bovine; details: LCT ∼[…] for non-CYPs; value = assay target as listed
rSERT = rSERT (Rattus norvegicus, UniProt P31652); assay: TR_rSERT serotonin transporter binding
Chain of rSERT (P31652 whole entry): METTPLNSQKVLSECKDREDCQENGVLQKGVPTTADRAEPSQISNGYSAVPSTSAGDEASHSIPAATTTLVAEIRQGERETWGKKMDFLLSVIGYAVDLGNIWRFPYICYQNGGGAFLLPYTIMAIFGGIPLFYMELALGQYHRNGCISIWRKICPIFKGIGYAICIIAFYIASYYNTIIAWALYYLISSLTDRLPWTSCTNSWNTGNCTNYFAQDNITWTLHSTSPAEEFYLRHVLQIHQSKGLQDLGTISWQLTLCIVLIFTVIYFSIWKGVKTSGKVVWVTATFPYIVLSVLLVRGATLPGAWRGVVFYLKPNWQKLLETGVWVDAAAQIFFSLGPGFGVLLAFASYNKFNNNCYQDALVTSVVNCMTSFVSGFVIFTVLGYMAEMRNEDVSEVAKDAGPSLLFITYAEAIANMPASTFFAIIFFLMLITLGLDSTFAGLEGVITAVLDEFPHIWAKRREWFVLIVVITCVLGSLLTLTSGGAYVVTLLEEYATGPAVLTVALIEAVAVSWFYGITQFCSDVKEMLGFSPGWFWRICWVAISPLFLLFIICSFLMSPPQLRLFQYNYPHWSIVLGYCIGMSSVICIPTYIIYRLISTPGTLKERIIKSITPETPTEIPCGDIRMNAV

Chain of hNTS (P30989 whole entry): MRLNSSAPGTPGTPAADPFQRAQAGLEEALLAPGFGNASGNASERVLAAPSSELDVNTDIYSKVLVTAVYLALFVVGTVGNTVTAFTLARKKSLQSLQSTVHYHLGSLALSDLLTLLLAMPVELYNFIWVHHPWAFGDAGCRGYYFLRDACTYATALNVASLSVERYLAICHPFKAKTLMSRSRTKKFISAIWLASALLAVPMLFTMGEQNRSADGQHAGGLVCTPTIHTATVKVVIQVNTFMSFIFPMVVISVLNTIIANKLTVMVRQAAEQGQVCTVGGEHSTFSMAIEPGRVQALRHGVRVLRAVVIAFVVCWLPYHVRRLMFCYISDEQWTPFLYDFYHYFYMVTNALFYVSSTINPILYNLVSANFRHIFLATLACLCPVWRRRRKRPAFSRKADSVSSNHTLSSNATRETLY
Chain of hCYP4F12 (Q9HCS2 whole entry): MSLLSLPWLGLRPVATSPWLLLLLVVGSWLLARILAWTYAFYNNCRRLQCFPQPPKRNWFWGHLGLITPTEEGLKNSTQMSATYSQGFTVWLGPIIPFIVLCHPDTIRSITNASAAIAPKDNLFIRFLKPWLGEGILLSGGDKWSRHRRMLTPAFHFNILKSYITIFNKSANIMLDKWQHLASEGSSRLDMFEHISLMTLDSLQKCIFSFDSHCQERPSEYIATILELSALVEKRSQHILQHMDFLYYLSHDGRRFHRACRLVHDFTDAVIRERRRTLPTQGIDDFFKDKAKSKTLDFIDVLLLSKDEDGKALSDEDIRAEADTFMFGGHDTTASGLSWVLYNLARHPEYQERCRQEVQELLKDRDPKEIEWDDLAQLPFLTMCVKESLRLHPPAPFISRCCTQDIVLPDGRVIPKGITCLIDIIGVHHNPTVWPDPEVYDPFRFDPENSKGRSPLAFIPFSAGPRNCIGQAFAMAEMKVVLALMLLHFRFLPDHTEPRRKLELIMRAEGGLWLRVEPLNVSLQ
Chain of hETA (P25101 21-427): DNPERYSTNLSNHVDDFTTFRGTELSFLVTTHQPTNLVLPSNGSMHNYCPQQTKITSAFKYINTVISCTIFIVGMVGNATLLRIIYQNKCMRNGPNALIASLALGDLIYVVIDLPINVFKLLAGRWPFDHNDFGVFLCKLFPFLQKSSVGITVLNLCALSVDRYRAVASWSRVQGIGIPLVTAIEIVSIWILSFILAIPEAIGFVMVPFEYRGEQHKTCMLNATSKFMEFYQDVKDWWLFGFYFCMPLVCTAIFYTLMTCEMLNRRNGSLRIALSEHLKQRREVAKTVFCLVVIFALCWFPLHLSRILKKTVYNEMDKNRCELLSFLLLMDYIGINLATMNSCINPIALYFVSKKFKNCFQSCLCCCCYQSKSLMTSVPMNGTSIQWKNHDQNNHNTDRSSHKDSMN
Chain of h5HT2A (P28223 whole entry): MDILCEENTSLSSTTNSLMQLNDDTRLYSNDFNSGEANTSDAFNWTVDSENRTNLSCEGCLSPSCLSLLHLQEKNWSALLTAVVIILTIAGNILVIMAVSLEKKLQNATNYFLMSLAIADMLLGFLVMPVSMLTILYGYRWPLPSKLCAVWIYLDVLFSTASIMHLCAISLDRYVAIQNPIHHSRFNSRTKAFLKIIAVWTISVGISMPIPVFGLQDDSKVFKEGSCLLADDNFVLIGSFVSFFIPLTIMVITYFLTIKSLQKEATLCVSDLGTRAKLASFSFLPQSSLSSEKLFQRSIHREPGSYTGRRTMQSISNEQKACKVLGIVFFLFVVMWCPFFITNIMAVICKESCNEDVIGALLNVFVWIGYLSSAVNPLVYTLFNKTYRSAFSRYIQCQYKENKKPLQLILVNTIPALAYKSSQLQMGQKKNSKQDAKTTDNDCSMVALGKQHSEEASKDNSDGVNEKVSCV
Chain of hAdrb2 (P07550 whole entry): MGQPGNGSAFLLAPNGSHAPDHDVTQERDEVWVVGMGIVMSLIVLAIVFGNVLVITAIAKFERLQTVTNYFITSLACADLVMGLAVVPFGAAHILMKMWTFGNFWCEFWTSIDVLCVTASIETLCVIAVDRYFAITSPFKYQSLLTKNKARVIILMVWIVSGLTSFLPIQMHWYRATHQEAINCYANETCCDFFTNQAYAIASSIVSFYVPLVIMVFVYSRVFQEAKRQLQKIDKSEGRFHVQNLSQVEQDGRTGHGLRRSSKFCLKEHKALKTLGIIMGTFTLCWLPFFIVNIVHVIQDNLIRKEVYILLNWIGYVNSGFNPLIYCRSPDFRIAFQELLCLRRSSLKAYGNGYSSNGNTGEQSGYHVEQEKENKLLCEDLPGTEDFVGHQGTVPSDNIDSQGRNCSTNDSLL
Chain of hDRD4.4 (P21917 whole entry): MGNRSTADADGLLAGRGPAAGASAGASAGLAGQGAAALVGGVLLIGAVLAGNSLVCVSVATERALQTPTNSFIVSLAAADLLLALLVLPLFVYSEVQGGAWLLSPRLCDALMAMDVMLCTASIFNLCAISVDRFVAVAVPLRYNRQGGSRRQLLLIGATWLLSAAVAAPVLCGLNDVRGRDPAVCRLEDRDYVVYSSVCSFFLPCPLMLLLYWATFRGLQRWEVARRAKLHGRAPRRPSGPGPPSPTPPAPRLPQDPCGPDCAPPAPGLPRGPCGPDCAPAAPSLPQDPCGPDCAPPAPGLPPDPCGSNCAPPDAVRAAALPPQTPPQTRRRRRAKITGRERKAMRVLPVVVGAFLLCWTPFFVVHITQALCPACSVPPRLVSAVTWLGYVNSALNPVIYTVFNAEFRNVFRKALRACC
Chain of h5HT7 (P34969 whole entry): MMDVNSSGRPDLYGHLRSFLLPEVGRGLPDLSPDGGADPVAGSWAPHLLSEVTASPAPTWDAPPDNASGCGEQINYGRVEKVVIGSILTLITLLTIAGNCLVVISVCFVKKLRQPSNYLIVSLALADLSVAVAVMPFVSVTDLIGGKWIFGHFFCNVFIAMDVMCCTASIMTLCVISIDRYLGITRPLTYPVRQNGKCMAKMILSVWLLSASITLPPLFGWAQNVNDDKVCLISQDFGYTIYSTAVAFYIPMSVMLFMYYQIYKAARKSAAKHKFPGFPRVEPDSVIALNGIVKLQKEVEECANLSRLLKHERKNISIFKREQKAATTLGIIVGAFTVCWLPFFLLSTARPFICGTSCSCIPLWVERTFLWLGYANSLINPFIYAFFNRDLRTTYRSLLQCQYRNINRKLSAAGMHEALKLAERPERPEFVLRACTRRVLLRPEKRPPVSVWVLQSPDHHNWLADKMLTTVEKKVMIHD
Chain of rNNR_BungSens (Q05941 23-502): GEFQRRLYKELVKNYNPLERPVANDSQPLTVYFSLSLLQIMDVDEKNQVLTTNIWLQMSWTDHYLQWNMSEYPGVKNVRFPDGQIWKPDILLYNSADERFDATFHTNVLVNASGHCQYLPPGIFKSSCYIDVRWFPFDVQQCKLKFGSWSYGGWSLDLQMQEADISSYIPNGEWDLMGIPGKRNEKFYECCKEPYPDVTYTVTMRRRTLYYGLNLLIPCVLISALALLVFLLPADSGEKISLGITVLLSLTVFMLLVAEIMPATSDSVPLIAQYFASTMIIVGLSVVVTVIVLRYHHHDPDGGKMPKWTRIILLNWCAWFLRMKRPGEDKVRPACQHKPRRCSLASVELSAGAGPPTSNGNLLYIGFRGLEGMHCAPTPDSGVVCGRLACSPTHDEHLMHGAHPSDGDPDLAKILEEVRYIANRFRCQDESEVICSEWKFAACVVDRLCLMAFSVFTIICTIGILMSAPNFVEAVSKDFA
Chain of hDUSP3 (P51452 whole entry): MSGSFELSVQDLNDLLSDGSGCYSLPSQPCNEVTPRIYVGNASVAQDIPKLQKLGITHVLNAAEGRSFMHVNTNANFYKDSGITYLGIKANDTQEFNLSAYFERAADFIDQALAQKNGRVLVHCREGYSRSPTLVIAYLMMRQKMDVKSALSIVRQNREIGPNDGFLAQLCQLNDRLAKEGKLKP
Chain of mCCKAPeripheral (O08786 whole entry): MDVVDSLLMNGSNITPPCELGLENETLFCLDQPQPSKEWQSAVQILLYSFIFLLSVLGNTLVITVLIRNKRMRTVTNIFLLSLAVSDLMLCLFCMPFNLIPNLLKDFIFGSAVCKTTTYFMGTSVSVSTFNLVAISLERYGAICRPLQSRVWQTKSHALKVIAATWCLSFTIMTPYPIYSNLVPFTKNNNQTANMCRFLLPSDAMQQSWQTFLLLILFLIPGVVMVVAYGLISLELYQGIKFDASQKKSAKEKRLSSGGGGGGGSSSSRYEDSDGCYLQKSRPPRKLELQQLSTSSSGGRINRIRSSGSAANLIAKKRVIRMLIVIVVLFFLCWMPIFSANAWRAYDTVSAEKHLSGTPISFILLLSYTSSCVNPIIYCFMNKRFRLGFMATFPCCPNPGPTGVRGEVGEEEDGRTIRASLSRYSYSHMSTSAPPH

NC(=O)Cn1c(=O)cc(CCN2CCN(c3nccc4sccc34)CC2)c2ccc(F)cc21 [trelanserin (SL650472 pharma), trelanserin]
AC50 at the lowest concentration tested (LCT) (h5HT7): GPCR_h5HT2A/7 | AC50 at the lowest concentration tested (LCT) (h5HT2A): GPCR_h5HT2A | AC50 at the lowest concentration tested (LCT) (p5HT2C): p5HT2C | AC50 at the lowest concentration tested (LCT) (r5HT_NonSelective): r5HT_NonSelective | AC50 at the lowest concentration tested (LCT) (hDRD1): GPCR_hDRD1 | AC50 at the lowest concentration tested (LCT) (hDRD4.4): GPCR_hDRD1/4.4

CCOC(=O)COc1cc(-n2ncc(C(F)(F)F)c(C)c2=O)c(F)cc1Cl [flufenpyr-ethyl]
AC50 at the lowest concentration tested (LCT) (hCYP4F12): ADME_hCYP4F12_Activator

CCCCc1ccc2c(n1)[C@@H](c1ccc(OC)cc1C[C@H](C)C(=O)[O-])[C@H](C(=O)[O-])[C@H]2c1ccc2c(c1)OCO2.[Na+].[Na+] [disodium (5S,6R,7R)-5-(1,3-benzodioxol-5-yl)-2-butyl-7-{2-[(2S)-2-carboxylatopropyl]-4-methoxyphenyl}-6,7-dihydro-5H-cyclopenta[b]pyridine-6-carboxylate]
AC50 at the lowest concentration tested (LCT) (hETA): GPCR_hETA

emamectin benzoate
AC50 at the lowest concentration tested (LCT) (hNTS): GPCR_hNTS

CCCN(CC)CC1COC2(CCC(C(C)(C)C)CC2)O1 (stereo not drawn) [spiroxamine]
AC50 at the lowest concentration tested (LCT) (gSIGMA_NonSelective): OR_gSIGMA_NonSelective

CCOc1cccc(-n2cc(C(=O)N3CCN(c4cc(C(=O)[O-])c5ccccc5c4)CC3)nc2-c2ccc(C)cc2)c1.[Na+] [sodium 3-(4-{[1-(3-ethoxyphenyl)-2-(4-methylphenyl)-1H-imida] [sodium 3-(4-{[1-(3-ethoxyphenyl)-2-(4-methylphenyl)-1H-imidazol-4-yl]carbonyl}piperazin-1-yl)naphthalene-1-carboxylate]
AC50 at the lowest concentration tested (LCT) (mCCKAPeripheral): GPCR_mCCKAPeripheral

mancozeb
AC50 at the lowest concentration tested (LCT) (hDUSP3): ENZ_hDUSP3 | effect on kinase and phosphatase assays, in words (kinases and phosphatases): affected multiple kinase and phosphatase assays

CN1CCN(c2ccccc2/C=C2\SCCN(c3ccc(Cl)c(Cl)c3)C2=O)CC1 [elzasonan (CP-448187 pharma), elzasonan]
AC50 at the lowest concentration tested (LCT) (hAdrb2): GPCR_hAdrb2

O=C(N[C@H]1CN2CCC1CC2)c1cc2ccoc2cn1 [PHA-00543613 pharma]
AC50 at the lowest concentration tested (LCT) (rNNR_BungSens): LGIC_rNNR_BungSens

CS(=O)(=O)O.Cc1nccn1-c1ccc(Sc2cccc(C3(C(N)=O)CCOCC3)c2)cc1 [4-(3-{[4-(2-methyl-1H-imidazol-1-yl)phenyl]sulfanyl}phenyl)tetrahydro-2H-pyran-4-carboxamide methanesulfonate]
AC50 at the lowest concentration tested (LCT) (gDAT): TR_gDAT

CCOc1cccc(-n2cc(C(=O)N3CCN(c4cc(C(=O)[O-])c5ccccc5c4)CC3)nc2-c2ccc(C)cc2)c1.[Na+] [CP-457920 pharma]
AC50 at the lowest concentration tested (LCT) (bGABARa5): LGIC_bGABARa5

CNCc1cc(F)ccc1Oc1ccc(Cl)c(Cl)c1 [1-[2-(3,4-dichlorophenoxy)-5-fluorophenyl]-N-methylmethanamine]
AC50 at the lowest concentration tested (LCT) (rSERT): TR_rSERT
